{"source": "patent US20250170124A1", "about": "“METHODS OF DIAGNOSING AND TREATING NEURODEGENERATIVE DISEASES” (The General Hospital Corporation, priority 2022, published 2025)", "key": {"[1]": {"test_system": "PrP-5′UTR (prion protein IRE)", "assay_type": "cell-based, human", "settings": "versus SNCA 5′UTR"}, "PGL3 5′UTR": {"test_system": "PGL3 5′UTR", "experiment": "Secondary (counterscreen) luciferase assay in H4-C cells, IRE stem-loop removed", "assay_type": "cell-based, human", "settings": "versus SNCA 5′UTR"}, "[2]": {"test_system": "alpha-synuclein 5′-UTR IRE (SNCA 5′UTR)", "experiment": "Primary screen/retest: ASYN 5′-UTR IRE-driven luciferase expression in H4 cells", "assay_type": "cell-based, human", "settings": "48 h"}, "alpha-synuclein": {"test_system": "alpha-synuclein", "experiment": "ELISA secondary screen for alpha-synuclein in SH-SY5Y cells", "assay_type": "cell-based, human", "set-up": "Decrease syn(%) SHSY5Y cells: unit of the concentration uncertain", "settings": "for Decrease αsyn(%) SHSY5Y cells: Table 2; for Decrease syn(%) SHSY5Y cells: Table 3", "experimental": "FIG. 2 illustrates the results of ELISA experiments with compound 10 in SH-SY5Y cells. […]\nFIG. 18 illustrates alpha Synuclein ELISA (Invitrogen) measurements from SHSY5 undifferentiated neurons treated with the indicated doses (triplicate wells) of compounds 2, 13, 11, 14, 15, and 16) for 48 h.\nA human ASYN ELISA kit was utilized for all ELISA experiments (Invitrogen alpha-synuclein ELISA kit KHB0061) and the kit protocol was followed.\n1) Plate SH-SY5Y […] cells (Corning, 3570) at 10,000 cells/well in 50 μL phenol red free media (phenol red-free DMEM with 4.5 g/L D-glucose [Lonza, 12-917F] supplemented with 10% FBS [Lonza, 14-503E], 200 μM L-glutamine [Lonza, 17-605E], 100 μM penstrep [Lonza, 17-602E] and 200 μg/mL geneticin [Invitrogen, 10131-027]).\n2) Lid plates, then incubate cells for 24 hours at 37° C., 5% CO2, 95% humidity in a tissue culture incubator.\n3) Pin 100 nL of each compound into the assay plates spanning a final concentration range from 100-0.006 μM.\n4) Incubate plates for 48 h at 37° C., 5% CO2, 95% humidity. Following incubation, add 5 μL of Alamar blue solution per well and allow to incubate for 1 h at 37° C., 5% CO2, 95% humidity.\n5) Read Alamar blue fluorescence using a Thermo Varioskan (570 nm excitation, 585 nm emission). Remove cell media and add 30 μL cell lysis solution with protease inhibitor (G Biosciences, 786-331; 10 μL/mL).\n6) Place plates on a plate shaker for 1 h, before removing 20 μL lysate. Transfer cell lysates to 500 μL Eppendorf tubes and centrifuge (Eppendorf Centrifuge 5417C) for 10 min at 13,000 rpm.\n7) Add 12 μL of the cell supernatant to 48 μL of standard diluent buffer (1:5). Add these samples to ELISA plate wells. Prepare ASYN standard curve wells as described in the kit manual.\n8) Add 50 μL of anti-α-Synuclein (Detection Antibody) solution to each well, tapping the plate to mix. Cover the plate with a tape seal and incubate for 3 h at RT.\n9) Wash wells four times with wash buffer using a multichannel pipette and add 100 μL of anti-rabbit IgG-HRP antibody solution to each well. Cover the plate and incubate for 30 min at RT. Wash wells four times with wash buffer and add 100 μL of Stabilized Chromogen to each well. Seal the plate and incubate in the dark at RT for 30 min.\n10) Finally, add 100 μL of Stop Solution to each well, tapping the plate to mix, and read absorbance at 450 nm using an Envision plate reader (Perkin Elmer)."}, "α-Synuclein [3]": {"test_system": "α-Synuclein", "experiment": "Western blots of α-syn in iPSC derived DA neuron lysates", "assay_type": "cell-based, human"}, "α-Syn": {"test_system": "α-Syn", "experiment": "Decrease of α-syn in Triple SNCA cortical neurons", "settings": "concentration not given"}, "SNCA IRE": {"test_system": "SNCA IRE", "experiment": "Spinach fluorescent assay, SNCA IRE fluorescence sensor R7"}, "α-Synuclein [4]": {"test_system": "α-Synuclein", "experiment": "Decrease of α-syn in iPSC derived DA neurons", "assay_type": "cell-based, human", "set-up": "Decrease syn(%) DA neurons: dose or concentration left out as unconfirmed", "settings": "for Decrease αsyn(%) DA neurons: Table 2; for Decrease syn(%) DA neurons: Table 3"}, "[5]": {"settings": "Homo sapiens, Table 2, H4 cells, luciferase, read-out: IC50/μM (SNCA 5′UTR)"}, "[6]": {"settings": "Homo sapiens, Table 3, H4 cells, luciferase, read-out: IC50/M (SNCA 5′UTR)"}}, "note": "Where two headings read alike, the source gives them in different places.", "data": [{"smiles": "CCOC(=O)c1[nH]c(C)c(C(=O)c2cc(F)ccc2F)c1C", "note": "[Compound 8, ethyl 4-(2,5-difluorobenzoyl)-3,5-dimethyl-1H-pyrrole-2-carboxylate]", "values": [{"measurement": "Selectivity PrP-5′UTR", "setting": "[1]; Table 2", "result": "58-fold"}, {"measurement": "Selectivity PGL3 5′UTR", "setting": "PGL3 5′UTR; Table 2", "result": "53-fold"}, {"measurement": "IC50", "setting": "[2]; [5]", "result": 0.2, "unit": "µM"}, {"measurement": "Decrease αsyn(%) SHSY5Y cells", "setting": "alpha-synuclein; @ 0.1-1 μM", "result": "20-40 @ 0.1-1%"}]}, {"smiles": "CCOC(=O)c1[nH]c(C)c(C(=O)c2cc(F)ccc2F)c1C", "note": "[Compound 13, Ethyl 4-(2,5-difluorobenzoyl)-3,5-dimethyl-1H-pyrrole-2-carboxylate]", "values": [{"measurement": "Selectivity PrP-5′UTR", "setting": "[1]; Table 3", "result": "58-fold"}, {"measurement": "Selectivity PGL3 5′UTR", "setting": "PGL3 5′UTR; Table 3", "result": "53-fold"}, {"measurement": "IC50", "setting": "[2]; [6]", "result": 0.2, "unit": "µM"}, {"measurement": "Decrease syn(%) SHSY5Y cells", "setting": "alpha-synuclein; @ 0.1-1M", "result": "20-40 @ 0.1-1M %"}]}, {"smiles": "COc1cccc(N2CCN(C(=O)c3ccc(C[S+]([O-])c4ccc(C)cc4)o3)CC2)c1", "note": "(centres unmarked) [Compound 1, (4-(3-methoxyphenyl)piperazin-1-yl)(5-((p-tolylsulfinyl)methyl)furan-2-yl)methanone]", "values": [{"measurement": "Selectivity PrP-5′UTR", "setting": "[1]; Table 2", "result": "126-fold"}, {"measurement": "Selectivity PGL3 5′UTR", "setting": "PGL3 5′UTR; Table 2", "result": "58-fold"}, {"measurement": "IC50", "setting": "[2]; [5]", "result": 0.1, "unit": "µM"}, {"measurement": "Decrease αsyn(%) SHSY5Y cells", "setting": "alpha-synuclein; @ 1 μM", "result": "14-28 @ 1%"}]}, {"smiles": "CN1CC[C@]2(C)c3cc(OC(=O)Nc4ccccc4)ccc3N(C)[C@H]12", "note": "[Posiphen, reference compound]", "values": [{"measurement": "α-syn levels (Western blot)", "setting": "α-Synuclein [3]", "result": "reduced"}, {"measurement": "Decrease αsyn(%) X3 SNCA neurons", "setting": "α-Syn; Table 2", "result": 5, "unit": "%"}, {"measurement": "Decrease syn(%) X3 SNCA neuron", "setting": "α-Syn; Table 3", "result": 5, "unit": "%"}, {"measurement": "IC50", "setting": "[2]; Table 2, H4 cells, luciferase, read-out: IC50/μM (SNCA 5′UTR)", "result": 10, "unit": "µM"}, {"measurement": "Decrease αsyn(%) SHSY5Y cells", "setting": "alpha-synuclein; @10 μM", "result": "25-50 @10%"}, {"measurement": "Decrease syn(%) SHSY5Y cells", "setting": "alpha-synuclein; @10 µM", "result": "25-50 @10M ^ %"}, {"measurement": "binding to SNCA IRE (fluorescence of sensor R7)", "setting": "SNCA IRE", "result": "no measurable effect or quenching effect"}, {"measurement": "Decrease αsyn(%) DA neurons", "setting": "α-Synuclein [4]; concentration not given", "result": 25, "unit": "%"}, {"measurement": "Decrease syn(%) DA neurons", "setting": "α-Synuclein [4]; concentration not given", "result": 25, "unit": "%"}]}, {"smiles": "CCC1=Nc2cc(C(=O)NCCCOC)ccc2Sc2ccccc21", "note": "[Compound 7, 11-ethyl-N-(3-methoxypropyl)dibenzo[b,f][1,4]thiazepine-8-carboxamide]", "values": [{"measurement": "Selectivity PrP-5′UTR", "setting": "[1]; Table 2", "result": "127-fold"}, {"measurement": "Selectivity PGL3 5′UTR", "setting": "PGL3 5′UTR; Table 2", "result": "68-fold"}, {"measurement": "IC50", "setting": "[2]; [5]", "result": 0.127, "unit": "µM"}, {"measurement": "Decrease αsyn(%) SHSY5Y cells", "setting": "alpha-synuclein; @ 1 μM", "result": "30-60 @ 1%"}]}, {"smiles": "O=C(c1ccc(C[S+]([O-])c2ccccc2Cl)o1)N1CCN(c2ccccc2)CC1", "note": "(centres unmarked) [Compound 6, (5-(((2-chlorophenyl)sulfinyl)methyl)furan-2-yl)(4-phenylpiperazin-1-yl)methanone]", "values": [{"measurement": "Selectivity PrP-5′UTR", "setting": "[1]; Table 2", "result": "Inc."}, {"measurement": "Selectivity PGL3 5′UTR", "setting": "PGL3 5′UTR; Table 2", "result": "80-fold"}, {"measurement": "IC50", "setting": "[2]; [5]", "result": 0.1, "unit": "µM"}, {"measurement": "Decrease αsyn(%) SHSY5Y cells", "setting": "alpha-synuclein; @ 0.1-1 μM", "result": "21-42 @ 0.1-1%"}]}, {"smiles": "COC(=O)c1c(NC(=O)c2ccc([N+](=O)[O-])o2)sc2c1CCN(C(C)C)C2", "note": "[Compound 9, methyl 6-isopropyl-2-(5-nitrofuran-2-carboxamido)-4,5,6,7-tetrahydrothieno[2,3-c]pyridine-3-carboxylate]", "values": [{"measurement": "inhibition of α-Synuclein protein expression versus β-Syn, γ-Syn, Ferritin, APP and Prion proteins", "setting": "α-Synuclein [3]; 1 μM, 72 h, normalized to β-Actin", "result": "selectively inhibit"}, {"measurement": "α-syn levels (Western blot)", "setting": "α-Synuclein [3]; 10 μM and 1 μM compound, 72 h, β-actin standardized, N=3", "result": "reduced"}, {"measurement": "Selectivity PGL3 5′UTR", "setting": "PGL3 5′UTR; Table 2", "result": "1,200-fold"}, {"measurement": "Selectivity PGL3 5′UTR", "setting": "PGL3 5′UTR; Table 3", "result": "1,200-fold"}, {"measurement": "IC50", "setting": "[2]; Homo sapiens, read-out: IC50/M (SNCA 5′UTR)", "result": 0.1, "unit": "µM"}, {"measurement": "IC50", "setting": "[2]; Homo sapiens, read-out: IC50/μM (SNCA 5′UTR)", "result": 0.1, "unit": "µM"}, {"measurement": "Decrease αsyn(%) DA neurons", "setting": "α-Synuclein [4]; @ 1 μM", "result": "90 @ 1 μM %"}, {"measurement": "Decrease syn(%) DA neurons", "setting": "α-Synuclein [4]", "result": "90 @ 1M %"}]}, {"smiles": "Cc1cc(C)cc(Nc2nc3ccc(C)cc3n3cnnc23)c1", "note": "[Compound 15, N-(3,5-dimethylphenyl)-8-methyl[1,2,4]triazolo[4,3-a]quinoxalin-4-amine]", "values": [{"measurement": "Selectivity PrP-5′UTR", "setting": "[1]; Table 3", "result": "18-fold"}, {"measurement": "Selectivity PGL3 5′UTR", "setting": "PGL3 5′UTR; Table 3", "result": "43-fold"}, {"measurement": "IC50", "setting": "[2]; [6]", "result": 2.8, "unit": "µM"}, {"measurement": "Decrease syn(%) SHSY5Y cells", "setting": "alpha-synuclein; @ 1 µM", "result": "25-50 @ 1M^ %"}]}]}
